Experimental findings from US7256186B2, “Gamma secretase inhibitors” (Schering Corporation, priority 2002, dated 2007) are described below.

Like-named read-outs stand apart in the source and are kept apart here.

The target in the assay is T1, Gamma secretase (Homo sapiens, UniProt P49768).
T1 construct: endogenous in cells; host or cells: Salt-washed membranes of 293 T-REx cells, clone pTRE.15; Only the substrate SPC99-Lon is transfected (pcDNA4/TO, tetracycline-induced)
Nature of the assay: Gamma secretase activity assay on membranes of 293 cells expressing SPC99-Lon (Aβ 40 / Aβ 42 measured by ECL immunoassay). The assay is classed as biochemical. The following applies: membrane γ-secretase assay. The procedure: Upon insertion into the membrane, the 17 amino acid signal peptide is processed, leaving an additional leucine at the N-terminus of Aβ. SPC99-lon was cloned into the pcDNA4/TO vector (Invitrogen) and transfected into 293 cells stably transfected with pcDNA6/TR, which is provided in the T-REx system (Invitrogen). The transfected cells were selected in Dulbecco's modified Eagle's media (DMEM) supplemented with 10% fetal bovine serum, 100 units/mL penicillin, 100 µg/mL streptomycin, 250 µg/mL zeocin, and 5 µg/mL blasticidin (Invitrogen). Colonies were screened for Aδ production by inducing C99 expression with 0.1 g/mL tetracycline for 16–20 h and analyzing conditioned media with a sandwich immunoassay (see below). One of the clones, designated as pTRE.15, was used in these studies.
C99 expression in cells was induced with […] tetracycline for 20 h. The cells were pretreated with […] 12-myristate 13-acetate (PMA) and […] A (BFA) for 5–6 h at 37 C before harvesting. The cells were washed 3 times with cold phosphate-buffered saline (PBS) and harvested in buffer A containing 20 mM Hepes (pH 7.5), 250 mM sucrose, 50 mM KCl, 2 mM EDTA, 2 mM EGTA, and Complete protease inhibitor tablets (Roche Molecular Biochemicals). The cell pellets were flash-frozen in liquid nitrogen and stored at −70 C before use.
To make membranes, the cells were resuspended in buffer A and lysed in a nitrogen bomb at 600 psi. The cell lysate was centrifuged at 1500 g for 10 min to remove nuclei and large cell debris. The supernatant was centrifuged at 100000 g for 1 h. The membrane pellet was resuspended in buffer A plus 0.5 M NaCl, and the membranes were collected by centrifugation at 200000 g for 1 h. The salt-washed membrane pellet was washed again in buffer A and centrifuged at 100000 g for 1 h. The final membrane pellet was resuspended in a small volume of buffer A using a Teflon-glass homogenizer. The protein concentration was determined, and membrane aliquots were flash-frozen in liquid nitrogen and stored at −70 C. γ-Secretase Reaction and Aβ Analysis
To measure γ-secretase activity, membranes were incubated at 37 C for 1 h in 50 L of buffer containing 20 mM Hepes (pH 7.0) and 2 mM EDTA. At the end of the incubation, Aβ 40 and Aβ 42 were measured using an electrochemiluminescence (ECL)-based immunoassay. Aβ 40 was identified with antibody pairs TAG-G2–10 and biotin-W02, while Aβ 42 was identified with TAG-G2–11 and biotin-4G8. The ECL signal was measured using an ECL-M8 instrument (IGEN International, Inc.) according to the manufacturer's instructions. The data presented were the means of the duplicate or triplicate measurements in each experiment.

[1] abbreviates: 37 C, 1 h, read-out: IC50 (μM), γ-secretase inhibitory activity.
The mark [2] stands for this setting: range stated for a group of examples, read-out: IC50 within the range stated, gamma secretase assay.

Take `O=C(OC[C@H]1CCC[C@@H](c2cc(F)cc(F)c2)N1S(=O)(=O)c1ccc(Cl)cc1)N1CCC(N2CCCCC2)CC1` [Example 67-AT]: the IC50 under setting [1] is 0.0038 µM.

For `CC1(N2CCCCC2)CCN(C(=O)OC[C@H]2CCC[C@@H](c3cccc(F)c3)N2S(=O)(=O)c2ccc(Cl)cc2)CC1` [Example 67-BA], under setting [2], the IC50 was 0.0002 to 0.015 µM.

With `O=C(OC[C@H]1CCC[C@@H](c2ccc(F)c(F)c2)N1S(=O)(=O)c1ccc(Cl)cc1)N1CCC(N2CCCCC2)CC1` [Example 67-BD], the IC50 under setting [2] fell in the range of 0.0002 to 0.015 µM.

Regarding `Cc1cc([C@@H]2CCC[C@H](COC(=O)N3CCC(N4CCCCC4)CC3)N2S(=O)(=O)c2ccc(Cl)cc2)ccc1F` [Example 67-BE], the IC50 under setting [2] was 0.0002 to 0.015 µM.

For the compound `O=C(OC[C@H]1CCC[C@@H](c2cc(F)cc(F)c2)N1S(=O)(=O)c1ccc(Cl)cc1)N1CCC(N2CCCCC2)CC1` [Example 67-BG], the IC50 is 0.0023 µM under setting [1] and 0.0002 to 0.015 µM under setting [2].

As for `NC(=O)C1(N2CCCCC2)CCN(C(=O)OC[C@H]2CCC[C@@H](c3cc(F)cc(F)c3)N2S(=O)(=O)c2ccc(Cl)cc2)CC1` [Example 67-BH], under setting [2], the IC50 is 0.0002 to 0.015 µM.

In the case of `O=C(OC[C@H]1CCC[C@@H](c2cc(F)ccc2F)N1S(=O)(=O)c1ccc(Cl)cc1)N1CCC(N2CCCCC2)CC1` [Example 67-BL], the IC50 under setting [2] fell in the range of 0.0002 to 0.015 µM.

For `O=C(OC[C@H]1CCC[C@@H](c2cccc(F)c2)N1S(=O)(=O)c1ccc(Cl)cc1)N1CCC(N2CCCCC2)CC1` [Example 67-B], the IC50 by setting is: under setting [1], 0.0027 µM; under setting [2], 0.0002 to 0.015 µM.

Regarding `O=C(OC[C@H]1CCC[C@@H](c2ccccc2F)N1S(=O)(=O)c1ccc(Cl)cc1)N1CCC(N2CCCCC2)CC1` [Example 67-E], the IC50 under setting [2] lay in the range of 0.0002 to 0.015 µM.

Regarding `O=C(OC[C@H]1CCC[C@@H](c2cccc(F)c2)N1S(=O)(=O)c1ccc(Cl)cc1)N1CCC(N2CCC(F)(F)CC2)CC1` [Example 67-N], the IC50 under setting [2] fell in the range of 0.0002 to 0.015 µM.

With `C=C1CCN(C2CCN(C(=O)OC[C@H]3CCC[C@@H](c4cccc(F)c4)N3S(=O)(=O)c3ccc(Cl)cc3)CC2)CC1` [Example 67-P], the IC50 under setting [2] lay in the range of 0.0002 to 0.015 µM.

In the case of `O=C(OC[C@H]1CCC[C@@H](c2cccc(F)c2)N1S(=O)(=O)c1ccc(F)cc1)N1CCC(N2CCCCC2)CC1` [Example 67-U], under setting [2], the IC50 lay within 0.0002 to 0.015 µM.

Consider `O=C(OC[C@@H]1CCC[C@H](C2CC2)N1S(=O)(=O)c1ccc(Cl)cc1)N1CCN(C2CCCCC2)CC1` [Example 160-B], for which, under setting [2], the IC50 is 0.0002 to 0.015 µM.

`CC1CC(N2CCCCC2)CCN1C(=O)OC[C@@H]1CCC[C@H](C2CC2)N1S(=O)(=O)c1ccc(Cl)cc1` (some centres unmarked) [Example 160-K]: under setting [2], the IC50 lay within 0.0002 to 0.015 µM.

Turning to `O=C(OC1([C@H]2CCC[C@@H](C3CC3)N2S(=O)(=O)c2ccc(Cl)cc2)CC1)N1CCC(N2CCCCC2)CC1` [Example 161-A], the IC50 was 0.0028 µM under setting [1] and 0.0002 to 0.015 µM under setting [2].

`CC(C)N1CCN(C(=O)OC2([C@H]3CCC[C@@H](C4CC4)N3S(=O)(=O)c3ccc(Cl)cc3)CC2)CC1` [Example 161-E]: the IC50 under setting [2] fell in the range of 0.0002 to 0.015 µM.

As to `O=C(OC1([C@H]2CCC[C@@H](C3CC3)N2S(=O)(=O)c2ccc(Cl)cc2)CC1)N1CCN(CC2CC2)CC1` [Example 161-F], the IC50 under setting [2] was 0.0002 to 0.015 µM.

For the compound `O=C(OC1(C2CCCC(c3cccc(F)c3)N2S(=O)(=O)c2ccc(Cl)cc2)CC1)N1CCC(N2CCCCC2)CC1` (centres unmarked) [Example 173-A], the IC50 runs as follows: under setting [1], 0.0007 µM; under setting [2], 0.0002 to 0.015 µM.

Take `O=C(OC1(C2CCCC(c3cccc(F)c3)N2S(=O)(=O)c2ccc(Cl)cc2)CC1)N1CCN(C2CCCCC2)CC1` (centres unmarked) [Example 173-B]: the IC50 under setting [2] was in the range of 0.0002 to 0.015 µM.

In the case of `O=C(OC1(C2CCCC(c3cccc(F)c3)N2S(=O)(=O)c2ccc(Cl)cc2)CC1)N1CCN(CCO)CC1` (centres unmarked) [Example 173-C], the IC50 is 0.0018 µM under setting [1] and 0.0002 to 0.015 µM under setting [2].

For the compound `NC(=O)C1(N2CCCCC2)CCN(C(=O)OC2(C3CCCC(c4cccc(F)c4)N3S(=O)(=O)c3ccc(Cl)cc3)CC2)CC1` (centres unmarked) [Example 173-E], the IC50 by setting is: under setting [1], 0.0027 µM; under setting [2], 0.0002 to 0.015 µM.

Regarding `O=C(OC1(C2CCCC(c3cccc(F)c3)N2S(=O)(=O)c2ccc(Cl)cc2)CC1)N1CCC2(CC1)NCNC2=O` (centres unmarked) [Example 173-G], under setting [2], the IC50 was 0.0002 to 0.015 µM.

Turning to `O=C(OC1([C@H]2CCC[C@@H](c3ccc(F)cc3F)N2S(=O)(=O)c2ccc(Cl)cc2)CC1)N1CCC(N2CCCCC2)CC1` [Example 173-I], under setting [2], the IC50 fell in the range of 0.0002 to 0.015 µM.

For the compound `NC(=O)C1(N2CCCCC2)CCN(C(=O)OC2([C@H]3CCC[C@@H](c4cc(F)cc(F)c4)N3S(=O)(=O)c3ccc(Cl)cc3)CC2)CC1` [Example 173-J], the IC50 was 0.0008 µM under setting [1] and 0.0002 to 0.015 µM under setting [2].

On to `O=C(OC1([C@H]2CCC[C@@H](c3cc(F)cc(F)c3)N2S(=O)(=O)c2ccc(Cl)cc2)CC1)N1CCN(C2CCCCC2)CC1` [Example 173-K], for which the IC50 under setting [2] lay in the range of 0.0002 to 0.015 µM.

With `O=C(OC1([C@H]2CCC[C@@H](c3cc(F)cc(F)c3)N2S(=O)(=O)c2ccc(Cl)cc2)CC1)N1CCC2(CC1)C(=O)NCN2c1ccccc1` [Example 173-L], the IC50 under setting [2] was in the range of 0.0002 to 0.015 µM.

Consider `O=C(OC1([C@H]2CCC[C@@H](c3cc(F)cc(F)c3)N2S(=O)(=O)c2ccc(Cl)cc2)CC1)N1CCC(N2CCCCC2)CC1` [Example 173], for which the concentration for half-maximal inhibition (IC50) runs as follows: under setting [1], 0.0002 µM; under setting [2], 0.0002 to 0.015 µM.

In general, IC50 refers to the point on the concentration scale where inhibition reaches its midpoint.
